Read-outs that look alike come from different tables or passages of the source.
How the values were obtained:
caspase-2 (C2) = caspase-2 (C2) (Homo sapiens, UniProt P42575); assay: Caspase-2 biochemical activity assay with fluorogenic substrate
Excerpt: Error bars represent the standard deviation of thre replicate measurements. […] Activity measured by the cleavage of aminofluorocoumarin-labeled peptides (see the Supporting Information for sequences). C = caspase.

[1] = test system: lamin A cleavage by caspase-6 in SK-N-AS cells; assay: Lamin cleavage assay (in-cell western after staurosporine induction); type: cell-based; details: Homo sapiens, 1 h compound then staurosporine 3 h
Protocol: This assay measured lamin A cleavage under staurosporine-induced caspase activation; while staurosporine activates all executioner caspases, lamin A cleavage monitors only the activity of C6. After 1 h of preincubation with the compound and 3 h of incubation with staurosporine, lamin A cleavage was measured by in-cell western.
Inhibition of lamin A cleavage in SK-N-AS cells after staurosporine induction of caspases. Cells were treated with the indicated compound for 1 h before the addition of 10 μM staurosporine for 4 h. Error bars indicate the standard deviation from n = 4 replicate samples.
serves as a useful target-engagement assay in cells. We used the procedure of Mintz, et al, with the following modifications: SK-N-AS cells were seeded at 10,000 cells/well in black clear bottom 384-
well plates coated with poly-D-lysine and allowed to adhere overnight. Wells were treated with
varying doses of casapase-6 inhibitor, from 5 µM – 0.1 nM in 2-fold dilutions. After one hour, cells
were treated with 10 µM staurosporine to induce apoptosis and activation of multiple caspases. 3
hours after staurosporine addition, cells were fixed and permeabilized before in-cell westerns were
performed, as described.9

[2] = target: T1, proteins of HEK293T cells transiently overexpressing caspase-6 (Homo sapiens, UniProt O43169); type: cell-based; details: protein CYB5B (O43169)
T1 sequence (O43169 16-150): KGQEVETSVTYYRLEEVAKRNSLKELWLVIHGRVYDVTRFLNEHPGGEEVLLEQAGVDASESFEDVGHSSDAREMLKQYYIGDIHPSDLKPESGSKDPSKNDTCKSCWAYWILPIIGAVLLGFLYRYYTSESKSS

[3] = target: proteins of HEK293T cells transiently overexpressing caspase-6 (Homo sapiens, UniProt P08133); type: cell-based; details: exp_ref Probe; protein ANXA6 (P08133); analysis C6
[4] = target: T2, proteins of HEK293T cells transiently overexpressing caspase-6 (Homo sapiens, UniProt Q07065); type: cell-based; details: protein CKAP4 (Q07065)
T2 sequence (Q07065 1-602): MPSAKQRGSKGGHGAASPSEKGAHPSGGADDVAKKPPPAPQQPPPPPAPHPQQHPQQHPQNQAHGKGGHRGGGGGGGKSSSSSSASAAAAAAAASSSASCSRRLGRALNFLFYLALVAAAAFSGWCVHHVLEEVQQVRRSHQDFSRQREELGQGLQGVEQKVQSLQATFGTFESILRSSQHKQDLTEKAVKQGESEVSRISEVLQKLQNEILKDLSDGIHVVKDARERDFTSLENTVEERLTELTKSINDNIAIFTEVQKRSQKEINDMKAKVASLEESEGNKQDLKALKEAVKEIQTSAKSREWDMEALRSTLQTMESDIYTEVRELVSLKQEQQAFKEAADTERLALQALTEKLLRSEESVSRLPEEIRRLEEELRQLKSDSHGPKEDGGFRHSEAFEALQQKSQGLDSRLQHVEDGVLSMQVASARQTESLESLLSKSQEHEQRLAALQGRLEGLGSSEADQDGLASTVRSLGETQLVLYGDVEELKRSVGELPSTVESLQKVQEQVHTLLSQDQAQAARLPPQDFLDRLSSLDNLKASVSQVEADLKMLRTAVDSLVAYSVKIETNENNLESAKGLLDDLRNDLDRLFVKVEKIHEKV

[5] = target: proteins of HEK293T cells transiently overexpressing caspase-6 (Homo sapiens, UniProt P27797); type: cell-based; details: exp_ref Probe; protein CALR (P27797); analysis C6
[6] = target: proteins of HEK293T cells transiently overexpressing caspase-6 (Homo sapiens, UniProt Q92688); type: cell-based; details: protein ANP32B (Q92688)
[7] = target: proteins of HEK293T cells transiently overexpressing caspase-6 (Homo sapiens, UniProt P52272); type: cell-based; details: exp_ref Probe; protein HNRNPM (P52272); analysis C6
[8] = target: proteins of HEK293T cells transiently overexpressing caspase-6 (Homo sapiens, UniProt P18124); type: cell-based; details: Probe; protein RPL7 P18124
[9] = target: proteins of HEK293T cells transiently overexpressing caspase-6 (Homo sapiens, UniProt P84103); type: cell-based; details: Probe; protein SRSF3 P84103
[10] = target: proteins of HEK293T cells transiently overexpressing caspase-6 (Homo sapiens, UniProt Q9Y2X3); type: cell-based; details: protein NOP58 (Q9Y2X3); exp_ref Probe; analysis C6
[11] = target: proteins of HEK293T cells transiently overexpressing caspase-6 (Homo sapiens, UniProt P50991); type: cell-based; details: exp_ref Probe; protein CCT4 (P50991); analysis C6
[12] = target: proteins of HEK293T cells transiently overexpressing caspase-6 (Homo sapiens, UniProt P40939); type: cell-based; details: exp_ref Probe; protein HADHA (P40939); analysis C6
[13] = target: proteins of HEK293T cells transiently overexpressing caspase-6 (Homo sapiens, UniProt Q9Y5M8); type: cell-based; details: exp_ref Probe; protein SRPRB (Q9Y5M8); analysis C6
[14] = target: proteins of HEK293T cells transiently overexpressing caspase-6 (Homo sapiens, UniProt P61221); type: cell-based; details: exp_ref Probe; protein ABCE1 (P61221); analysis C6
[15] = target: proteins of HEK293T cells transiently overexpressing caspase-6 (Homo sapiens, UniProt P53396); type: cell-based; details: exp_ref Probe; protein ACLY (P53396); analysis C6
[16] = target: proteins of HEK293T cells transiently overexpressing caspase-6 (Homo sapiens, UniProt O14980); type: cell-based; details: protein XPO1 (O14980); exp_ref Probe; analysis C6
[17] = target: proteins of HEK293T cells transiently overexpressing caspase-6 (Homo sapiens, UniProt P09211); type: cell-based; details: exp_ref Probe; protein GSTP1 (P09211); analysis C6
[18] = target: proteins of HEK293T cells transiently overexpressing caspase-6 (Homo sapiens, UniProt Q04917); type: cell-based; details: Probe; protein YWHAH Q04917
Chain of proteins of HEK293T cells transiently overexpressing caspase-6 (Homo sapiens, UniProt Q04917) (Q04917 whole entry): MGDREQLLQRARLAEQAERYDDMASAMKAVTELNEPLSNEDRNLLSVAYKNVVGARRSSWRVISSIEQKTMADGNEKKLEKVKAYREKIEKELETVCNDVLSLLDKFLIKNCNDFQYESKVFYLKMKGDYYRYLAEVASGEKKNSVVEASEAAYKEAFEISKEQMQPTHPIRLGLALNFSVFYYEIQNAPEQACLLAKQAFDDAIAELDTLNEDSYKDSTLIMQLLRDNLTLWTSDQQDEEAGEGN

Chain of proteins of HEK293T cells transiently overexpressing caspase-6 (Homo sapiens, UniProt Q92688) (Q92688 whole entry): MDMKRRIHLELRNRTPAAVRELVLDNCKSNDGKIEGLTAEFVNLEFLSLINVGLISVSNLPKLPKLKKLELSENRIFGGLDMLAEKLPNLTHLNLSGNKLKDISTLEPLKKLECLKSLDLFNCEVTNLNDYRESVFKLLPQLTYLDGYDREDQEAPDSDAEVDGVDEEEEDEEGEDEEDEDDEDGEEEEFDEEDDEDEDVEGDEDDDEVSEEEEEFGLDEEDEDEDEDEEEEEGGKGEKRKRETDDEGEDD
Chain of proteins of HEK293T cells transiently overexpressing caspase-6 (Homo sapiens, UniProt P84103) (P84103 whole entry): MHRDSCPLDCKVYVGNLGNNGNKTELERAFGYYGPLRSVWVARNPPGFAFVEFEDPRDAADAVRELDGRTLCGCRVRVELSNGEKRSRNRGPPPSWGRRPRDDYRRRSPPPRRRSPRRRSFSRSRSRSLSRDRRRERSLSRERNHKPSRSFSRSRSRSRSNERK
Chain of proteins of HEK293T cells transiently overexpressing caspase-6 (Homo sapiens, UniProt P09211) (P09211 whole entry): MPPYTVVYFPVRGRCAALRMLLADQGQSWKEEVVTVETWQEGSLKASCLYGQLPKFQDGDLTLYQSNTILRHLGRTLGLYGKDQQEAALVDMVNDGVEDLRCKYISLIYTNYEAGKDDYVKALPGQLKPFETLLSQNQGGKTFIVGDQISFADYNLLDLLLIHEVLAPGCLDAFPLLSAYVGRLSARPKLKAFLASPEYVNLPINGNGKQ
Chain of proteins of HEK293T cells transiently overexpressing caspase-6 (Homo sapiens, UniProt Q9Y2X3) (Q9Y2X3 whole entry): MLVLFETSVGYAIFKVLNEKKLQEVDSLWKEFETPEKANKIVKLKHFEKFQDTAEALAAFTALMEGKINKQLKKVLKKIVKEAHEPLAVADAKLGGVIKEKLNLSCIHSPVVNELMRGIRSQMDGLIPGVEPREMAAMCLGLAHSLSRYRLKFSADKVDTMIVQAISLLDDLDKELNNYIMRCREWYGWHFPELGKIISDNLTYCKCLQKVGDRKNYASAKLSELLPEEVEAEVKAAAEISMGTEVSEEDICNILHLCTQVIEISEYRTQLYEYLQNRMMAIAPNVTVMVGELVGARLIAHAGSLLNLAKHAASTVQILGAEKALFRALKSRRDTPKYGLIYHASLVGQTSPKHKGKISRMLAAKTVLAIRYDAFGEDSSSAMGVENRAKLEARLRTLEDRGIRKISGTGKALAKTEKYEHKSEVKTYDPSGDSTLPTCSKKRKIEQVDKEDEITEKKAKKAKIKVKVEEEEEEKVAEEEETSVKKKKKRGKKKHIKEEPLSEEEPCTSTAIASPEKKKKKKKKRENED
Chain of proteins of HEK293T cells transiently overexpressing caspase-6 (Homo sapiens, UniProt O14980) (O14980 whole entry): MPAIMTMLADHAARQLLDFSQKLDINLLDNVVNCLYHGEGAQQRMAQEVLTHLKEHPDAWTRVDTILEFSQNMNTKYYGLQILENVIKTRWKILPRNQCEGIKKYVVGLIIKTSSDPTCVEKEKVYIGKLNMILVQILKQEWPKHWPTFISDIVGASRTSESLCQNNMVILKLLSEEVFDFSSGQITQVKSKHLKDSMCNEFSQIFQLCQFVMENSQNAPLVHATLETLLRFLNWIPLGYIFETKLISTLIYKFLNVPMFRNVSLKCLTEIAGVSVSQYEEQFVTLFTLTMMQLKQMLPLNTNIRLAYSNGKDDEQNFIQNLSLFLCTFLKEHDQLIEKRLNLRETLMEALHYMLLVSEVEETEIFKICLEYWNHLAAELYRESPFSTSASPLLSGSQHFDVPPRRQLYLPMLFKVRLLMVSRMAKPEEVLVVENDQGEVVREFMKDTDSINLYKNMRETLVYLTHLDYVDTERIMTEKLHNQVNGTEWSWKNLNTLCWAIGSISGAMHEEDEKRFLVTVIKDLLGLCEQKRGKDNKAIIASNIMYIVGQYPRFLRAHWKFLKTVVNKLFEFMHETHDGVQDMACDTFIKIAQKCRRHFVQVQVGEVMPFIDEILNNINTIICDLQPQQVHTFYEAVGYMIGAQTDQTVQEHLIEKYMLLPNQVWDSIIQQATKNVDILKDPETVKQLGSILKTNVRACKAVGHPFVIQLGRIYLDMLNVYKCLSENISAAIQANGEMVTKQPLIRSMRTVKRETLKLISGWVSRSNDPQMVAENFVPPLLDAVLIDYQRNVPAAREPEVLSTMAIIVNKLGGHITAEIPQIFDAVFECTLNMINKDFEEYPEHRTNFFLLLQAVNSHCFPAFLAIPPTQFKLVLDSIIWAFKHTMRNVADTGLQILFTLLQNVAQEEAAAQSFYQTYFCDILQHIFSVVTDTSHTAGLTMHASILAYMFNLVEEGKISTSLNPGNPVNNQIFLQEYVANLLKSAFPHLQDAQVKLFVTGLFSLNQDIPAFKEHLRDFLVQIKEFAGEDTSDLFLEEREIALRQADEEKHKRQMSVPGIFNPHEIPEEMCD
Chain of proteins of HEK293T cells transiently overexpressing caspase-6 (Homo sapiens, UniProt P53396) (P53396 whole entry): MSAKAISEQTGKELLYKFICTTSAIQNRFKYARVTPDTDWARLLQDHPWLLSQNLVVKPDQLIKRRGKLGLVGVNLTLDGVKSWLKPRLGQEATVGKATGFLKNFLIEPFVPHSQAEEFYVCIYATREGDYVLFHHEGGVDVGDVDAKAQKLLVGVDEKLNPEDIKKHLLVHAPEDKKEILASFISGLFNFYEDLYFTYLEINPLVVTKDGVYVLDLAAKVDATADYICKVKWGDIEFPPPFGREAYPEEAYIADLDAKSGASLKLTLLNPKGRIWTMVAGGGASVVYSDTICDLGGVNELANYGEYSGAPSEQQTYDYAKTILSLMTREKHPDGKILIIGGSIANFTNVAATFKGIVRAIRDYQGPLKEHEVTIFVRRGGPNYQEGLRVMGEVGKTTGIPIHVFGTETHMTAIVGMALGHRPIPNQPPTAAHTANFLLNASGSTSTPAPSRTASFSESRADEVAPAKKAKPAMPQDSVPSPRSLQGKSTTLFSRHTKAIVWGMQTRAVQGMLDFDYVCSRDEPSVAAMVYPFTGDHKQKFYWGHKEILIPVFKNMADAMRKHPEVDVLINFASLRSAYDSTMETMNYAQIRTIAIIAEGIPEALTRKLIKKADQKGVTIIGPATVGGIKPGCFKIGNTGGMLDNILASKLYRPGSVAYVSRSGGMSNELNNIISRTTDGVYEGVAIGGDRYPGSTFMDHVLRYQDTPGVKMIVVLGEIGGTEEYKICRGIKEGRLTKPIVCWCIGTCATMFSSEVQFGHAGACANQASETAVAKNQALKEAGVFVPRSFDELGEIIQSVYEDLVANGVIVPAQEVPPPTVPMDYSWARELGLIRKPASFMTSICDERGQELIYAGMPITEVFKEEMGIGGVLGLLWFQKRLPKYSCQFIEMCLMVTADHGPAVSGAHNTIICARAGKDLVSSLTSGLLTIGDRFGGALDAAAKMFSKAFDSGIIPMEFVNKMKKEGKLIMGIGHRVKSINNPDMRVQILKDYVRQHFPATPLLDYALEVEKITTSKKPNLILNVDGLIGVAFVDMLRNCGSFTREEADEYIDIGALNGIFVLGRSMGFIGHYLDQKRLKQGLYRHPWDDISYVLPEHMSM
Chain of proteins of HEK293T cells transiently overexpressing caspase-6 (Homo sapiens, UniProt P52272) (P52272 whole entry): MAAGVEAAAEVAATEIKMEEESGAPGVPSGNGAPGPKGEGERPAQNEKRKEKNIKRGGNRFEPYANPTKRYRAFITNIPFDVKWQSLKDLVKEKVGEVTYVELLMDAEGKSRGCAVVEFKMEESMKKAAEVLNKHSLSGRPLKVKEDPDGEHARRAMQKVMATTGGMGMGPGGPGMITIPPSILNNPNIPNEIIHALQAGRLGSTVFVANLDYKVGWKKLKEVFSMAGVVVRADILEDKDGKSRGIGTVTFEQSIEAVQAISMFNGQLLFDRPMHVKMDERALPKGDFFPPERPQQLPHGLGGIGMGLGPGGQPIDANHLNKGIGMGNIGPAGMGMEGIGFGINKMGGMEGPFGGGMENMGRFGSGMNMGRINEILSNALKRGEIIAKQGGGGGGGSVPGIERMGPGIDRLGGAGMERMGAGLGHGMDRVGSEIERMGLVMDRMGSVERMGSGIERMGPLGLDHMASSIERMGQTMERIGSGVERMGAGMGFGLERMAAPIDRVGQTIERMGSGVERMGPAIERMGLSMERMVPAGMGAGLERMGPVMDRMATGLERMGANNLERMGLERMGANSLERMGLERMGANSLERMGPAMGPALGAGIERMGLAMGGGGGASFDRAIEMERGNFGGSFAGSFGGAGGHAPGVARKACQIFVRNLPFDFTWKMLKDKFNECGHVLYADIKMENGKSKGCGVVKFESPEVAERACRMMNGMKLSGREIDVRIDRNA
Chain of caspase-2 (C2) (P42575 whole entry): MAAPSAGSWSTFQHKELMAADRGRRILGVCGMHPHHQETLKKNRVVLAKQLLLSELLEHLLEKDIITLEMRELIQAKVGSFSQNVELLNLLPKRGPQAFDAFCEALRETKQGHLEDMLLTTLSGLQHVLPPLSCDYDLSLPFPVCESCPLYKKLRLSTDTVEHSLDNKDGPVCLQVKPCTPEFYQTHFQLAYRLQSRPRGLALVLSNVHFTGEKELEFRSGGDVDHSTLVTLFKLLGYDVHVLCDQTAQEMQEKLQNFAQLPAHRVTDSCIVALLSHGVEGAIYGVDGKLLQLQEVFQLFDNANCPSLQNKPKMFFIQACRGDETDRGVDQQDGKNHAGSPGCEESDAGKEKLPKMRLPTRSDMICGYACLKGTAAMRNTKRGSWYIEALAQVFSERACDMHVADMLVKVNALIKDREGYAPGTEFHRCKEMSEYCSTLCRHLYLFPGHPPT

C=CS(=O)(=O)N1C[C@H](C(=O)Nc2ccc(OC(F)(F)F)cc2)C[C@@H](c2ccccc2)C1 [3a]
activity against C2 (in words) (caspase-2 (C2)): lack of activity
IC50 [1]: 170 ± 4 nM

C#CCOc1ccc([C@@H]2C[C@@H](C(=O)Nc3ccc(OC(F)(F)F)cc3)CN(S(=O)(=O)C=C)C2)cc1 (relative stereo) [13-t]
enrich.exp.med.lin [2]: 2.907
enrich.exp.med.log2 [2]: 1.54
enrich.exp.med ([2]; exp_ref Probe, analysis C6): 1.54
enrich.exp.med [3]: 0.01987
enrich.exp.med.lin [4]: 4.971
enrich.exp.med.log2 [4]: 2.313
enrich.exp.med.lin ([4]; Expt Probe, analysis C6): 4.971
enrich.exp.med.log2 ([4]; Expt Probe, analysis C6): 2.313
enrich.exp.med ([4]; exp_ref Probe, analysis C6): 2.313
enrich.exp.med [5]: 0.5687
enrich.exp.med.lin [6]: 4.217
enrich.exp.med.log2 [6]: 2.0761
enrich.exp.med ([6]; exp_ref Probe, analysis C6): 2.0761
enrich.exp.med [7]: 0.2991
enrich.exp.med [8]: -0.45
enrich.exp.med [9]: -0.7077
enrich.exp.med [10]: 1.504
enrich.exp.med [11]: 0.3881
enrich.exp.med [12]: 0.4567
enrich.exp.med [13]: 0.6428
enrich.exp.med [14]: -0.002133
enrich.exp.med [15]: -0.1134
enrich.exp.med [16]: 1.753
enrich.exp.med [17]: 0.03311
enrich.exp.med [18]: -1.452

— paper PMC10176470, “Engaging a Non-catalytic Cysteine Residue Drives Potent and Selective Inhibition of Caspase-6” (Journal of the American Chemical Society, 2023)
